Here are results for twelve molecules from patent US11339130B1 (Blade Therapeutics, Inc., priority 2016, dated 2022).

Read-outs that look alike come from different tables or passages of the source.

For assay [1], the target named is T1, Human Calpain 2/NS1 (Homo sapiens, UniProt P17655).
T1 sequence (P17655 1-700): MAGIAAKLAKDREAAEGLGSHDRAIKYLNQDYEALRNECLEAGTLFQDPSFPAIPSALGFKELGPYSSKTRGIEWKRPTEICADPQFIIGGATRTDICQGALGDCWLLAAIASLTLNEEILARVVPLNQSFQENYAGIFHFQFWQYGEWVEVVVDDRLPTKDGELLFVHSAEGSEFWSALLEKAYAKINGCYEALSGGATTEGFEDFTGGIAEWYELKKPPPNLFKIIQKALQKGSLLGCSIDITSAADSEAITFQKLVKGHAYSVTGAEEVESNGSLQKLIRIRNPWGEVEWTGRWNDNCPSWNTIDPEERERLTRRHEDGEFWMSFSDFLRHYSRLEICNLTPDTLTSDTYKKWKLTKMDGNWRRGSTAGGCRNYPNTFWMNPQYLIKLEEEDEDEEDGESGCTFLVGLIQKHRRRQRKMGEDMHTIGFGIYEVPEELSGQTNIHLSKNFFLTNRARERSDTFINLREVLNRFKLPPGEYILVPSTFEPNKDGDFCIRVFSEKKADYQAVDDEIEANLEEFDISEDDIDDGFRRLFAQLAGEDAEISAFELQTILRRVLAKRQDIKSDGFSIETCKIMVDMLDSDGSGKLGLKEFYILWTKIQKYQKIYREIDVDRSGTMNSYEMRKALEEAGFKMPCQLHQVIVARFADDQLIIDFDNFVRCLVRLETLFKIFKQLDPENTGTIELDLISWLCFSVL
T1 sequence (P04632 1-268 partner): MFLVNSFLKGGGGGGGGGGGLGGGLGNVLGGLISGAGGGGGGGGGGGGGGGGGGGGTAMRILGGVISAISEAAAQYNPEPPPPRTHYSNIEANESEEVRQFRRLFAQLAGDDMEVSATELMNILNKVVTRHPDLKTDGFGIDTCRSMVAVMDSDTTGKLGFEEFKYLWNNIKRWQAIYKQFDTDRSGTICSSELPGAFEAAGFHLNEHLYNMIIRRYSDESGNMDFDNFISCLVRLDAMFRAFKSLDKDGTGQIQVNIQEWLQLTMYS
The experiment in a line: Calpain inhibition continuous fluorescence (FRET) assay, Human Calpain 2/NS1. The assay is classed as biochemical. The settings on record: read-out: Human Calpain 2/NS1 IC50. Summed up:
(§1)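 Buffer 50 mM Tris pH 7.5/100 mM NaCl/1 mM DTT; enzyme + cpd preinc 25C; start w/ FRET substrate + CaCl2; kinetic 490/520 nm, 10 min; slopes 1-5 min; 4-PL IC50.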

Assay [2] deals with T2, Human Calpain 9/NS1 (Homo sapiens, UniProt O14815).
T2 sequence (O14815 1-690): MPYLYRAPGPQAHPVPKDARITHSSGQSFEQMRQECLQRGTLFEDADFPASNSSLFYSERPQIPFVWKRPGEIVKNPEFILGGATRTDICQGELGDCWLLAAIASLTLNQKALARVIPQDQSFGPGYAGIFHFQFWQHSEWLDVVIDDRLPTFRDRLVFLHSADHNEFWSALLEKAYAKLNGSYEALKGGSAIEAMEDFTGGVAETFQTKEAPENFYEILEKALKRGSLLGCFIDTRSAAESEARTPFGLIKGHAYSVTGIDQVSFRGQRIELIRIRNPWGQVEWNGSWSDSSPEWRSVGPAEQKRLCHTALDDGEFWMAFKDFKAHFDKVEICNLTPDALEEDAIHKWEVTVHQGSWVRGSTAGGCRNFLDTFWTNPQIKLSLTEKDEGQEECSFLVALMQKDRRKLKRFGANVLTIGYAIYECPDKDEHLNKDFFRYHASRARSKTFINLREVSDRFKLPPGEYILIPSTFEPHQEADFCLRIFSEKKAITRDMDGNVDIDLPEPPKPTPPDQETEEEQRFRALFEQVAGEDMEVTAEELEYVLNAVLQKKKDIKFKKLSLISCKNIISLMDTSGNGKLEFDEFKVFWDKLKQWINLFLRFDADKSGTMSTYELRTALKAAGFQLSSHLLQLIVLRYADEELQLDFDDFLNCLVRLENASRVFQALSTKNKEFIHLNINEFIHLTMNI
T2 sequence (P04632 1-268 partner): T1 sequence (P04632 1-268 partner)
The experiment in a line: Calpain inhibition continuous fluorescence (FRET) assay, Human Calpain 9/NS1. The assay is classed as biochemical. The note with it: read-out: Human Calpain 9/NS1 IC50. Summed up:
as §1

For assay [3], the system named is Calpain activity in SH-SY5Y cells (SBDP-150). The experiment in a line: SH-SY5Y Spectrin western blot assay (SBDP-150 breakdown product, A23187-induced). The assay is classed as cell-based. The note with it: SH-SY5Y cells, read-out: SH-SY5Y Spectrin IC50. In general terms: In western blotting, separated proteins are transferred to a membrane and probed.
Assay [4] deals with Calpain activity in SH-SY5Y cells. The experiment in a line: SH-SY5Y + AMC fluorescence assay (Suc-LLVY-AMC substrate). The note with it: read-out: SH-SY5Y + AMC IC50. The assay is classed as cell-based.
For assay [5], the target named is T3, Human Calpain 1/NS1 (Homo sapiens, UniProt P07384).
T3 sequence (P07384 1-714): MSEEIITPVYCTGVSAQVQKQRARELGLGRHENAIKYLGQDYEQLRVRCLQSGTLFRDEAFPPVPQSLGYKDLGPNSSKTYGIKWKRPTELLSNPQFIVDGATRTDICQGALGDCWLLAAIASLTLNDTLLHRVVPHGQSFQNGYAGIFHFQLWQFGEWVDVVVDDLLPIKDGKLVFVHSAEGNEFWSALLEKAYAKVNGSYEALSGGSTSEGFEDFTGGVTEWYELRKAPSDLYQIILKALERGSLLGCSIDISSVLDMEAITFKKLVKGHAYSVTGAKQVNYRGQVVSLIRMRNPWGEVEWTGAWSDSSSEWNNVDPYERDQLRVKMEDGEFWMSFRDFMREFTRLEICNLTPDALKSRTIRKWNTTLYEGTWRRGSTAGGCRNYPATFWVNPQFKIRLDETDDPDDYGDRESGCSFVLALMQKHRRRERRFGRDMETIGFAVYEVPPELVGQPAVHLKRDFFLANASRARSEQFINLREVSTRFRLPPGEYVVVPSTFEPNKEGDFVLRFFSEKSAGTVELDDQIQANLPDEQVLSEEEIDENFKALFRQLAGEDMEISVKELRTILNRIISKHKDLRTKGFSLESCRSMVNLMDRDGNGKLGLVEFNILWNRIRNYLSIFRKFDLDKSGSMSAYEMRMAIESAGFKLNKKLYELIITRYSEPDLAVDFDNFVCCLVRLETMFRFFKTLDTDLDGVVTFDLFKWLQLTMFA
T3 sequence (P04632 1-268 partner): T1 sequence (P04632 1-268 partner)
In words: Calpain inhibition continuous fluorescence (FRET) assay, Human Calpain 1/NS1. The assay is classed as biochemical. The note with it: read-out: Human Calpain 1/NS1 IC50. Summed up:
as §1

[6] abbreviates: Homo sapiens, A23187-induced SBDP-150, western blot.
The mark [7] stands for this setting: Homo sapiens, Column D, A23187-induced SBDP-150.

As to `Cc1cc(C(=O)N[C@@H](Cc2ccccc2)C(=O)C(N)=O)nn1-c1ccnc(Cl)n1` [Compound 435, (S)—N-(4-amino-3,4-dioxo-1-phenylbutan-2-yl)-1-(2-chloropyrimidin-4-yl)-5-methyl-1H-pyrazole-3-carboxamide], the IC50 was 3 to 10 µM in assay [1]; 3 to 10 µM in assay [2]; greater than 25 µM in assay [3] (setting [6]); less than 10 µM in assay [4]; greater than 10 µM in assay [5].

In the case of `Cc1cncc(-c2oncc2C(=O)NC(Cc2ccccc2)C(=O)C(N)=O)c1` (stereo not drawn) [Compound 600, N-(4-amino-3,4-dioxo-1-phenylbutan-2-yl)-5-(5-methylpyridin-3-yl)isoxazole-4-carboxamide], the IC50 was less than 3 µM in assay [1]; less than 3 µM in assay [2]; 10 to 25 µM in assay [3] (setting [6]); greater than 25 µM in assay [4]; less than 3 µM in assay [5].

Regarding `NC(=O)C(=O)C(Cc1ccccc1)NC(=O)c1cn(-c2ccc(F)cc2)nc1-c1ccccc1` (stereo not drawn) [Compound 529, N-(4-amino-3,4-dioxo-1-phenylbutan-2-yl)-1-(4-fluorophenyl)-3-phenyl-1H-pyrazole-4-carb oxamide], the IC50 in assay [1] is less than 3 µM; in assay [2] it was less than 3 µM; in assay [3] (setting [6]), greater than 25 µM; in assay [4], less than 10 µM; in assay [5], less than 3 µM.

Turning to `Cc1cccc(-c2nn(C)cc2C(=O)N[C@H](C=O)Cc2ccccc2)c1` [Compound 329, (S)-1-methyl-N-(1-oxo-3-phenylpropan-2-yl)-3-(M-tolyl)-1H-pyrazole-4-carboxamide], the IC50 in assay [1] is less than 3 µM; in assay [2] it was less than 3 µM; in assay [3] (setting [6]), greater than 25 µM; in assay [4], greater than 25 µM; in assay [5], less than 3 µM.

As to “N-(4-amino-3,4-dioxo-1-phenylbutan-2-yl)-1-methyl-3-(5-methylthiophen-2-yl)-1H-pyrazole-4-carboxamide [Compound 505]”, the IC50 in assay [1] is less than 3 µM; in assay [2] it was less than 3 µM; in assay [3] (A23187-induced SBDP-150, western blot), less than 10 µM; in assay [4] it was greater than 25 µM; in assay [5] it was less than 3 µM.

Turning to `NC(=O)C(=O)C(Cc1ccccc1)NC(=O)c1cn(C(F)F)nc1-c1ccc2ccccc2n1` (stereo not drawn) [Compound 588, N-(4-amino-3,4-dioxo-1-phenylbutan-2-yl)-1-(difluoromethyl)-3-(quinolin-2-yl)-1H-pyrazole-4-carboxamide], the IC50 is less than 3 µM in assay [1]; less than 3 µM in assay [2]; 10 to 25 µM in assay [3] (setting [6]); greater than 25 µM in assay [4]; less than 3 µM in assay [5].

As to `Cc1cc(C(=O)N[C@@H](Cc2ccccc2)C(=O)C(N)=O)n(-c2cccc(-c3cccc(F)c3)c2)n1` [Compound 106, (S)—N-(4-amino-3,4-dioxo-1-phenylbutan-2-yl)-1-(3′-fluoro-[1,1′-biphenyl]-3-yl)-3-methyl-1H-pyrazole-5-carboxamide], the IC50 in assay [1] (Column B) is less than 3 µM; in assay [2] (Column C), less than 3 µM; in assay [3] (setting [7]), less than 10 µM; in assay [4] (Column E) it was greater than 25 µM; in assay [5] (Column A), less than 3 µM.

For the molecule `Cn1cc(C(=O)NC(Cc2ccccc2)C(=O)C(N)=O)c(-c2cnc3ccccc3c2)n1` (stereo not drawn) [Compound 605, N-(4-amino-3,4-dioxo-1-phenylbutan-2-yl)-1-methyl-3-(quinolin-3-yl)-1H-pyrazole-4-carboxamide], the IC50 in assay [1] is less than 3 µM; in assay [2], less than 3 µM; in assay [3] (setting [6]) it was greater than 25 µM; in assay [4], greater than 25 µM; in assay [5], less than 3 µM.

For `COc1ccc2nc(-n3nc(C(=O)N[C@@H](Cc4ccccc4)C(=O)C(N)=O)cc3C)sc2c1` [Compound 296, (S)—N-(4-amino-3,4-dioxo-1-phenylbutan-2-yl)-1-(6-methoxybenzo[d]thiazol-2-yl)-5-methyl-1H-pyrazole-3-carboxamide], the IC50 in assay [1] (Column B) was less than 3 µM; in assay [2] (Column C), less than 3 µM; in assay [3] (setting [7]), less than 10 µM; in assay [4] (Column E) it was greater than 25 µM; in assay [5] (Column A), less than 3 µM.

Take `O=CC(Cc1ccccc1)NC(=O)c1nsnc1-c1ccccc1` (stereo not drawn) [Compound 401, N-(1-oxo-3-phenylpropan-2-yl)-4-phenyl-1,2,5-thiadiazole-3-carboxamide]: the IC50 was less than 3 µM in assay [1]; less than 3 µM in assay [2]; less than 10 µM in assay [3] (setting [6]); greater than 25 µM in assay [4]; less than 3 µM in assay [5].

As for `Cn1cc(C(=O)N[C@@H](Cc2ccccc2)C(=O)C(=O)NCc2ncco2)c(-c2ccccc2)n1` [Compound 334, (S)-1-methyl-N-(4-((oxazol-2-ylmethyl)amino)-3,4-dioxo-1-phenylbutan-2-yl)-3-phenyl-1H-pyrazole-4-carboxamide], the IC50 in assay [1] is less than 3 µM; in assay [2], less than 3 µM; in assay [3] (setting [6]), greater than 25 µM; in assay [4], less than 10 µM; in assay [5], less than 3 µM.

With `Cc1cc(C(=O)NC(Cc2ccccc2)C(=O)C(=O)NC2CC2)n(-c2ncccn2)n1` (stereo not drawn) [Compound 455, N-(4-(cyclopropylamino)-3,4-dioxo-1-phenylbutan-2-yl)-3-methyl-1-(pyrimidin-2-yl)-1H-pyrazole-5-carboxamide], the IC50 in assay [1] was less than 3 µM; in assay [2], greater than 10 µM; in assay [3] (setting [6]), greater than 25 µM; in assay [4], less than 10 µM; in assay [5] it was 3 to 10 µM.
